Results published in patent US6306869A, “N-oxides” (Byk Gulden Lomberg Chemische Febrik GmbH, priority 1998, dated 2001).

Tests used:
PDE4 (cAMP-specific) = assay: Inhibition of PDE isoenzymes: PDE4; type: biochemical; conditions: cytosol of human polymorphonuclear leukocytes (PMNL), cAMP as substrate, motapizone 1 μM present
PDE3 (cGMP-inhibited) = target: T1, PDE3 (cGMP-inhibited) (Homo sapiens, UniProt Q14432); assay: Inhibition of PDE isoenzymes: PDE3; type: biochemical; conditions: homogenates of human blood platelets, cAMP as substrate; read-out: PDE3 [-loglC50,mol/l] (converted)
T1 construct: were investigated in homogenates of human blood platelets; from tissue; host or cells: homogenates of human blood platelets
Protocol: The PDE activity was determined according to Thompson et al. (1) with some modifications (2). The test samples contained 40 mM tris HCl (pH 7.4), 5 mM MgCl2, 0.5 μM cAMP or cGMP, [^3 H] cAMP or [3H]CGMP (about 50,000 cpm/sample), the PDE isoenzyme-specific additions described in greater detail below, the indicated concentrations of inhibitor and an aliquot of the enzyme solution in a total sample volume of 200 μl. […] After preincubation at 37° C. for 5 minutes, the reaction was started by addition of the substrate (cAMP or cGMP). The samples were incubated at 37° C. for a further 15 min. The reaction was terminated by addition of 50 μl of 0.2 N HCl. After cooling on ice for 10 minutes and addition of 25 μg of 5'-nucleotidase (snake venom from Crotalus atrox), the mixture was again incubated at 37° C. for 10 min and the samples were then applied to QAE Sephadex A-25 columns. The columns were eluted with 2 ml of 30 mM ammonium formate (pH 6.0). The radioactivity of the eluate was measured and corrected by the corresponding blank values. The proportion of hydrolysed nucleotide in no case exceeded 20% of the original substrate concentration.
PDE3 (cGMP-inhibited) and PDE5 (cGMP-specific) were investigated in homogenates of human blood platelets [Schudt et al. (4)] using cAMP or cGMP as a substrate.
The IC50 values were determined from the concentration-inhibition curves by nonlinear regression using the GraphPad InPlot™ program (GraphPad Software Inc., […], USA).

T1 sequence (Q14432 whole entry): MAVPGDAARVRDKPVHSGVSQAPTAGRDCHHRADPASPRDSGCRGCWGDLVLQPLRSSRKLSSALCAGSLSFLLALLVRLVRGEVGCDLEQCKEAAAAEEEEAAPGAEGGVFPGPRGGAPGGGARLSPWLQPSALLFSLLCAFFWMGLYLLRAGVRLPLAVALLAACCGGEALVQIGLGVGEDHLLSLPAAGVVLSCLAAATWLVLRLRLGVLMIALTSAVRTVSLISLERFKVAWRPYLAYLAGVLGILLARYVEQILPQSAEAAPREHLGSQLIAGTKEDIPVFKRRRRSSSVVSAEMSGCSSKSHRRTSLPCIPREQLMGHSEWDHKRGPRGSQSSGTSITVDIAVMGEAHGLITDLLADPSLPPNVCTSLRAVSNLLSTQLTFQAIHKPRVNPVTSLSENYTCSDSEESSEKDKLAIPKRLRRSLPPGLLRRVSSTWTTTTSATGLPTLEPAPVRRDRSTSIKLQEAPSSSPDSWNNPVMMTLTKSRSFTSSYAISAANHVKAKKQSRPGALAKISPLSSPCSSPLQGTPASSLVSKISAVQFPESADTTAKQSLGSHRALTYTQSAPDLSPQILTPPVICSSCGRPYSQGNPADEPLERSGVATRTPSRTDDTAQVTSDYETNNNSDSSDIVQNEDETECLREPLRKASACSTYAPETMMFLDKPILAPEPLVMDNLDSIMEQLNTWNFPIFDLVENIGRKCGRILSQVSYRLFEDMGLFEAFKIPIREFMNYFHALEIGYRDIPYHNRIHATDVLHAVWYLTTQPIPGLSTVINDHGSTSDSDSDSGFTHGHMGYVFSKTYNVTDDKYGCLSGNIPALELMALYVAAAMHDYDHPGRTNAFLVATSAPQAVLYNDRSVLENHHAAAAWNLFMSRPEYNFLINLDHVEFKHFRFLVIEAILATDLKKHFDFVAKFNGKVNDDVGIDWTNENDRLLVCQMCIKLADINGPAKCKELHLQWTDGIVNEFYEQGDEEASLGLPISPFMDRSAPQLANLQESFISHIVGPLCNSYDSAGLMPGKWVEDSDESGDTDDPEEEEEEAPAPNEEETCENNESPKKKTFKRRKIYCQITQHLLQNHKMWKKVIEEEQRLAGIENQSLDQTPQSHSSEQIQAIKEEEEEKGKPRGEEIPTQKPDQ

Row | Compound | PDE4 [-loglC50,mol/l] (PDE4 (cAMP-specific)) | IC50 (PDE3 (cGMP-inhibited)) [nM]
1 | CCCCN(CCCC)C(=O)c1ccc(C2=N[C@@H]3CC[N+](C)([O-])C[C@@H]3c3cc(OCC)c(OC)cc32)cc1 (relative stereo) [Compound 2, cis-9-ethoxy-2-methyl-8-methoxy-6-(4-dibutylaminocarbonylphenyl)-1 ,2,3,4,4a,10b-hexahydrobenzo[c][1,6]naphthyridine N-2-oxide] | 7.98 | 1070
2 | CCCCN(CCCC)C(=O)c1ccc(C2=N[C@@H]3CC[N+](C)([O-])C[C@@H]3c3cc(OCCC)c(OC)cc32)cc1 (relative stereo) [Compound 3, cis-8-methoxy-2-methyl-9-propoxy-6-(4-dibutylaminocarbonylphenyl)-1 ,2,3,4,4a,10b-hexahydrobenzo[c][1,6]naphthyridine N-2-oxide] | 7.53 | 2090
3 | CCOc1cc2c(cc1OC)C(c1ccc(C(=O)N(C(C)C)C(C)C)cc1)=N[C@@H]1CC[N+](C)([O-])C[C@H]21 (single isomer, unassigned) [Compound 1, cis-9-ethoxy-8-methoxy-2-methyl-6-(4-diisopropylaminocarbonylphenyl)-1,2,3,4,4a,10b-hexahydrobenzo[c][1,6]naphthyridine N-2-oxide] | 7.20 | 776
